Measurements as given in patent US8846615B2, “MNTF peptides” (Genervon Biopharmaceuticals, LLC, priority 2008, dated 2014).
No end group written: not given here.

Tested on: rat spinal motor neurons
Experiment: in vitro rat motor neuron cell survival assay
Type: cell-based
Details: for MN survival (% Ctrl): 10 μg/mL peptide, medium lacking NTFs, surviving motor neurons as percentage of those surviving with NTFs alone (control), mean ± SD of five samples; for trophic effect on motor neuron cell death (in words): 10 μg/ml, culture medium lacking the conventional NTFs
Protocol: FIG. 1. Illustrates a survival assay of exemplary MNTF peptides on motor neuron survival. Motor neurons were cultured from rat spinal cords and grown in culture for 3 days in the presence of BDNF, GDNF and CNTF. After 3 days, the cells were grown in the absence of the conventional trophic factors but with the indicated MNTF peptides at 10 microgram/ml. After 48 hours the number of live cells was determined. The graph indicates mean+/−SD of five samples (BDNF=Brain derived neurotrophic factor; GDNF=Glial derived neurotrophic factor; CNTF=Ciliary neurotrophic factor).
Purification and culture of motor neurons. Spinal motor neuron cultures were prepared from E14.5 Sprague-Dawley rats (Charles River Labs). Briefly, dissected spinal cords were digested in 0.025% trypsin (Gibco) for 8 min at 37° C. The tissue was transferred to a solution containing L-15 medium (Gibco) supplemented with 2% horse serum (Gibco), insulin (5 μg/ml); putrescine (1×10^-4 M), conalbumin (100 μg/ml), sodium selenite (3×10^-8 M), progesterone (2×10^-8 M), glucose (3.6 mg/ml), penicillin (100 IU/ml), streptomycin (100 μg/ml), DNAse (100 μg/ml) and bovine serum albumin (BSA; 0.4%). […] The layered suspension was centrifuged at 830×g for 15 min. […] The motor neurons medium consists of neurobasal medium (Gibco) supplemented with B27 supplement (Gibco), glutamate (25 μM), 2-mercaptoethanol (25 μM) and 2% horse serum. The motor neurons were plated onto laminin-coated coverslips at a density of 3000 cells/coverslip unless otherwise stated. A cocktail of neurotrophic factors (NTFs: 1 ng/ml BDNF, 100 pg/ml GDNF, 10 ng/ml CNTF) was added at the time of cell seeding. After 24 h in culture, motor neurons were treated by addition of the different analogs diluted in motor neurons medium lacking NTFs.
Survival assay. Spinal motor neurons were prepared from E14.5 rat embryos as described. Cells were cultured in the presence of NTFs for 24 h and viability (VI) was estimated by counting the number of calcein AM-positive cells. For viability studies, motor neurons were cultured in the absence of NTFs with the addition of the analogs or GM6. The percentage of viable motor neurons was calculated by counting the number of neurons.
Statistical analysis. The number of surviving motor neurons for each treatment was expressed as a percentage of the number of motor neurons surviving in the presence of NTFs alone (control). Five dishes were used for each condition. Differences between treatments were analyzed for their statistical significance by one-way ANOVA with post hoc Tukey's testing.

| Substance | MN survival (% Ctrl) | trophic effect on motor neuron cell death (in words) | trophic effect on motor neuron cell death (in words) (listed as GM6) |
| --- | --- | --- | --- |
| FSR [compound 2307, 3-mer MNTF peptide, metabolite of the 6mer] | 35.00 ± 5.28 % Ctrl |  |  |
| FSRY [compound 2308, 4-mer MNTF peptide, metabolite of the 6mer] | 66.38 ± 5.86 % Ctrl |  |  |
| FSRYA [compound 2309, 5-mer MNTF peptide, metabolite of the 6mer] | 81.5 ± 4.50 % Ctrl |  |  |
| FSRYAR [GM6(GMP014), synthesized 6 amino acid peptide analog of MNTF] | 94.02 ± 3.53 % Ctrl | demonstrated protection from neuronal cell loss | demonstrated an attenuation of motor neuron cell death |
| RYA [compound 3222, 3-mer MNTF peptide] | 10.64 ± 1.72 % Ctrl |  |  |
| RYAR [compound 2311, 4-mer MNTF peptide, metabolite of the 6mer] | 9.66 ± 2.50 % Ctrl |  |  |
| SRY [compound 3221, 3-mer MNTF peptide] | 9.08 ± 2.32 % Ctrl |  |  |
| SRYA [compound 3223, 4-mer MNTF peptide] | 15.46 ± 1.82 % Ctrl |  |  |
| SRYAR [compound 2312, 5-mer MNTF peptide, metabolite of the 6mer] | 12.02 ± 2.31 % Ctrl |  |  |
| YAR [compound 2310, 3-mer MNTF peptide, metabolite of the 6mer] | 12.26 ± 1.70 % Ctrl |  |  |
